Test: Elimination of jejunal piperacillin during parenteral piperacillin/tazobactam therapy, canine model
Assay type: in vivo, beagle dogs
Settings: i.v. 100 mg piperacillin and 12.5 mg tazobactam per kg; experiment 1; compared with ampicillin or amoxicillin
Method: Beagle dogs were treated with a combination of piperacillin and tazobactam without and with simultaneous beta-lactamase therapy. The experiments were performed essentially as those described in Examples 1 and 2, except that a single dose of the piperacillin/tazobactam combination contained 100 mg of piperacillin and 12.5 mg of tazobactam per kg of body weight, and the HPLC analysis method was elaborated to be suitable for analysis of piperacillin (the limit of quantification was 10 micrograms per gram of jejunal chyme).
Piperacillin values in experiment 1 represent jejunal piperacillin concentrations achieved after two separate administrations of piperacillin/tazobactam at a dosing interval of 6 hours without beta-lactamase treatment. Beagle dogs were treated with a piperacillin/tazobactam combination with concurrent beta-lactamase therapy in experiment 2.
The experiment was repeated except that the single dose of beta-lactamase pellets contained about 0.3 mg of active beta-lactamase per kg of body weight, and the single dose of the piperacillin/tazobactam combination contained 65.6 mg of piperacillin and 9.4 mg of tazobactam per kg of body weight.

## CCN1CCN(C(=O)N[C@@H](C(=O)N[C@@H]2C(=O)N3[C@@H]2SC(C)(C)[C@@H]3C(=O)O)c2ccccc2)C(=O)C1=O [piperacillin]
  biliary elimination of piperacillin without beta-lactamase: considerably higher than that of ampicillin or amoxicillin

Source: patent US20090311234A1, “USE OF BETA-LACTAMASE” (priority 2006, published 2009)
